Patent US20180244616A1, “LACTAM COMPOSITIONS” (Conopco, Inc., a/b/a UNILEVER, priority 2015, published 2018)

Columns and labels:
gram-positive bacteria = experiment: anti-bacterial activity against gram-positive bacteria; assay type: cell-based
[1] = toxicity compared to other lactams having anti-microbial activity
gram-negative bacteria = experiment: anti-bacterial activity against gram-negative bacteria; assay type: cell-based

Q: Which results are given for C=C1NC(=O)C=C1c1ccc(Cl)cc1 [4-(4-chlorophenyl)-5-methylene-pyrrol-2-one]?
A: anti-bacterial activity against gram-positive bacteria (gram-positive bacteria): shows activity; toxicity [1]: unexpectedly low toxicity; anti-bacterial activity against gram-negative bacteria (gram-negative bacteria): shows activity

Q: Which toxicity [1] does the source give for C=C1NC(=O)C=C1c1ccc(C)cc1 [5-methylene-4-(p-tolyl)pyrrol-2-one] here?
A: unexpectedly low toxicity

Q: And the “anti-bacterial activity against gram-negative bacteria” value (gram-negative bacteria)?
A: shows selective activity
